In US4018895A, “Aryloxyphenylpropylamines in treating depression” (Eli Lilly and Company, priority 1975, dated 1977):

Assays:
[1] = test system: anticholinergic effect, isolated muscle strips; assay: Anticholinergic effect in isolated muscle strips
[2] = test system: antiserotonin effect, isolated muscle strips; assay: Antiserotonin effect in isolated muscle strips
[3] = test system: antihistaminic effect, isolated muscle strips; assay: Antihistaminic effect in isolated muscle strips
[4] = test system: hypothermia induced by the injection of apomorphine; assay: Apomorphine hypothermia antagonism test; format: in vivo, mice; settings: for Activity in antagonism of apomorphine hypothermia: in words
Method: The apomorphine hypothermia antagonism test is carried out as follows: mice are injected with a dose of apomorphine known to reduce body temperature approximately 4° C. […] The degree of antagonism is expressed as a percent reduction (as compared with controls) of the temperature decrease produced by the injection of the apomorphine. The reserpine hypothermia reversal test is carried out as follows: groups of mice are injected with reserpine and 16.5 hours later are injected intraperitoneally with graded doses of the drug, a different dose level being given to each group of mice. Temperatures are measured at 1 hour after injection of the drug under test and again the effectiveness of the drug is expressed as a percentage decrease in the hypothermia induced by the injection of reserpine as compared with the control group. In the tablets which follow, Table 4 gives the results in the apomorphine antagonism and reserpine reversal hypothermia tests for the secondary amines of this invention. In the table, the first column gives the substituent attached to the oxygen atom at the 3 position of the propylamine chain; columns 2 to 4 the percent antagonism against apomorphine hypothermia at dose levels of 0.3, 1 and 3 mg./kg. and columns 5-7 the percent reversal of reserpine hypothermia at the same dose levels.

[5] = test system: response rates of pigeons; assay: Operant behavior, fixed-ratio, fixed interval schedule; format: in vivo; settings: in words
Description: In manifesting their psychotropic action, the compounds of this invention also affect the behavior of animals trained in a variety of operant behavior schedules. Again, the activity of compounds of this invention in this type of test parallels that of known antidepressant drugs, particularly desmethylimipramine. […] With pigeons trained under an adjusting ratio schedule, the drugs of this invention affect behavior in the same way as does the marketed antidepressant, desmethylimipramine (DMI). […] The above results are consistent with antidepressant action.

brain serotonin = assay: Prevention of brain serotonin depletion caused by 4-chloroamphetamine; format: in vivo; settings: rats injected with 4-chloroamphetamine; drug 15 mg./kg. intraperitoneally; 4 hours later
Method: Following this injection, the protecting drug was injected at a dose of 15 mg./kg. of rat-weight intraperitoneally and determinations of brain serotonin levels were carried out 4 hours later.

[6] = test system: hypothermia induced by the injection of reserpine; assay: Reserpine hypothermia reversal test; format: in vivo, mice; settings: in words
Method: The apomorphine hypothermia antagonism test is carried out as follows: mice are injected with a dose of apomorphine known to reduce body temperature approximately 4° C. The compound under test is injected 1/2 hour before the injection of the apomorphine and the temperatures measured 1/2 hour after injection. The degree of antagonism is expressed as a percent reduction (as compared with controls) of the temperature decrease produced by the injection of the apomorphine. The reserpine hypothermia reversal test is carried out as follows: groups of mice are injected with reserpine and 16.5 hours later are injected intraperitoneally with graded doses of the drug, a different dose level being given to each group of mice. Temperatures are measured at 1 hour after injection of the drug under test and again the effectiveness of the drug is expressed as a percentage decrease in the hypothermia induced by the injection of reserpine as compared with the control group. In the tablets which follow, Table 4 gives the results in the apomorphine antagonism and reserpine reversal hypothermia tests for the secondary amines of this invention. In the table, the first column gives the substituent attached to the oxygen atom at the 3 position of the propylamine chain; columns 2 to 4 the percent antagonism against apomorphine hypothermia at dose levels of 0.3, 1 and 3 mg./kg. and columns 5-7 the percent reversal of reserpine hypothermia at the same dose levels.

[7] = test system: QRS complex of the electrocardiogram; assay: Electrocardiogram in anesthetized cats after intravenous injection; settings: in words

For `CNCCCN1c2ccccc2CCc2ccccc21` [desmethylimipramine], the “Potency as anticholinergic agent relative to N-methyl 3-(o-methoxyphenoxy)-3-phenylpropylamine” value [1] was 150 times, the “Potency as antiserotonin agent relative to N-methyl 3-(o-methoxyphenoxy)-3-phenylpropylamine” value [2] was “three” and the “Potency as antihistaminic agent relative to N-methyl 3-(o-methoxyphenoxy)-3-phenylpropylamine” value [3] was 150 times. The “Activity in antagonism of apomorphine hypothermia” value [4] was “active”, the “Response rates in fixed-ratio, fixed interval schedule” value [5] was “A similar effect” and the Brain serotonin level (brain serotonin) was 0.44 ± .03 µg/g. For the same molecule, the “Activity in reversal of reserpine hypothermia” value [6] was “active”.

In the case of `CN(C)CCC=C1c2ccccc2CCc2ccccc21` [amitriptyline, reference compound], the “Effect on the electrocardiogram (widening of the QRS complex)” value [7] is reported as “causes a widening of the QRS complex of the electrocardiogram”, the “Reduction of apomorphine hypothermia” value ([4]; 10 mg./kg. dose, measured 60 minutes after injection of the apomorphine) is reported as 100% and the “Activity in antagonism of apomorphine hypothermia” value [4] is reported as “active”. For the same molecule, the “Activity in reversal of reserpine hypothermia” value [6] was “active”.
